Measurements as given in US9090628B2, “Benzoxazepin compounds selective for PI3K P110 delta and methods of use” (GENENTECH, INC., priority 2011, dated 2015).

Legend:
[1] = biological target: p110 delta (Homo sapiens (Human), UniProt O00329); experiment: PI3K isoform inhibition assay, p110 delta (fluorescence polarization displacement); type: biochemical
Experimental: (§1) PI3K enzymatic activity was assayed by measuring the amount of product phosphatidylinositol 3,4,5-phosphate (PIP3) formed from substrate 4,5 phosphatidylinositol 4,5-phosphate (PIP2) using a fluorescence polarization displacement assay. The decrease in fluorescence polarization of a fluorescent PIP3 probe is measured as it is displaced from a PIP3-binding protein GRP-1 detector by PI3K-catalyzed product. […] The kinase reactions were initiated by the addition of 40 ng/mL p110α/p85α, 300 ng/mL p110β/p85α, 40 ng/mL p110γ, or 40 ng/mL p110δ/p85α (Upstate Group, Millipore; Dundee, UK), and 10 μM PIP2 (Echelon Biosciences) to the wells. […] After 60 minutes of incubation at room temperature to allow equilibration of labeled and unlabeled PIP3 binding, the parallel and perpendicular components of the fluorescence emissions from each sample were measured at an excitation wavelength of 530 nm and an emission wavelength of 590 nm using an Envision fluorescent plate reader with a rhodamine filter (PerkinElmer Life and Analytical Sciences; Wellesley, Mass.). The assay is capable of detecting 0.1-2.0 μM PIP3 product. The IC50 values were obtained by fitting the dose-dependent inhibition data to a 4-parameter equation using Assay Explorer software (MDL, San Ramon, Calif.).
The Formula I compound was serially diluted in 100% DMSO. The kinase reaction was incubated for 1 h at room temperature, and the reaction was terminated by the addition of PBS. IC50 values were subsequently determined using sigmoidal dose-response curve fit (variable slope).
(§2) The four Class I PI 3-kinases are cloned into baculovirus vectors as follows: […]

[2] = biological target: p110 alpha (Homo sapiens (Human), UniProt P42336); experiment: PI3K isoform inhibition assay, p110 alpha (for alpha/delta selectivity); conditions: ratio of biochemical IC50 values
Experimental: as §1
The same protocol may be used to establish IC50 values for p110α (alpha) PI3K binding.
as §2

p110 alpha, sequence (P42336 whole entry, canonical isoform): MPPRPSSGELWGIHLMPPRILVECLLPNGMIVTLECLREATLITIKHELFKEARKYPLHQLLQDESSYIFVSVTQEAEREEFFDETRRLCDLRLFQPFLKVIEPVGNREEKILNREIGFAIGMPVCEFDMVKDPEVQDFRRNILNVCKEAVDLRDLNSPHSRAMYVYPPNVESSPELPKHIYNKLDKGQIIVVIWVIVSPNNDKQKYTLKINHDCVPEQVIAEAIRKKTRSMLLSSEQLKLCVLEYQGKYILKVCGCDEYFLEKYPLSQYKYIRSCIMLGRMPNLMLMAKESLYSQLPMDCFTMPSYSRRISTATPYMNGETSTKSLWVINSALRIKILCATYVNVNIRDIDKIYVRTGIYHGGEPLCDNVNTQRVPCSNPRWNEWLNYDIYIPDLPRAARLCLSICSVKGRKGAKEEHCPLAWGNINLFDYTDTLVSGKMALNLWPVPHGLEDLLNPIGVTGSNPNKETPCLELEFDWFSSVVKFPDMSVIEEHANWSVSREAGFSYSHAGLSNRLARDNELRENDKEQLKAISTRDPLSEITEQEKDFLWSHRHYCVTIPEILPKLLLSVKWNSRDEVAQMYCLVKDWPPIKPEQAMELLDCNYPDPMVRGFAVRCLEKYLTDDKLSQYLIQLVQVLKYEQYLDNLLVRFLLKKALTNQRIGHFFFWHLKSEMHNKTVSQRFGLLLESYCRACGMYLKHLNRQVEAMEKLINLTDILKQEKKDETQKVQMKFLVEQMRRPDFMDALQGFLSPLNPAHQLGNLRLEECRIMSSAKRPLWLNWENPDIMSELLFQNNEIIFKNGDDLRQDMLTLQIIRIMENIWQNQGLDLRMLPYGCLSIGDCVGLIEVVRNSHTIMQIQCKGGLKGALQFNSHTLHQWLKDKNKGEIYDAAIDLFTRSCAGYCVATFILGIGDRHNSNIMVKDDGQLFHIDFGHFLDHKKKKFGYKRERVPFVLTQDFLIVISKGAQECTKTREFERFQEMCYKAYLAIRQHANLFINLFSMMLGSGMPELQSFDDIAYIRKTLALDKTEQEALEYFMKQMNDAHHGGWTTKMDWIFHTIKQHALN
p110 alpha, sequence (P27986 whole entry partner, canonical isoform): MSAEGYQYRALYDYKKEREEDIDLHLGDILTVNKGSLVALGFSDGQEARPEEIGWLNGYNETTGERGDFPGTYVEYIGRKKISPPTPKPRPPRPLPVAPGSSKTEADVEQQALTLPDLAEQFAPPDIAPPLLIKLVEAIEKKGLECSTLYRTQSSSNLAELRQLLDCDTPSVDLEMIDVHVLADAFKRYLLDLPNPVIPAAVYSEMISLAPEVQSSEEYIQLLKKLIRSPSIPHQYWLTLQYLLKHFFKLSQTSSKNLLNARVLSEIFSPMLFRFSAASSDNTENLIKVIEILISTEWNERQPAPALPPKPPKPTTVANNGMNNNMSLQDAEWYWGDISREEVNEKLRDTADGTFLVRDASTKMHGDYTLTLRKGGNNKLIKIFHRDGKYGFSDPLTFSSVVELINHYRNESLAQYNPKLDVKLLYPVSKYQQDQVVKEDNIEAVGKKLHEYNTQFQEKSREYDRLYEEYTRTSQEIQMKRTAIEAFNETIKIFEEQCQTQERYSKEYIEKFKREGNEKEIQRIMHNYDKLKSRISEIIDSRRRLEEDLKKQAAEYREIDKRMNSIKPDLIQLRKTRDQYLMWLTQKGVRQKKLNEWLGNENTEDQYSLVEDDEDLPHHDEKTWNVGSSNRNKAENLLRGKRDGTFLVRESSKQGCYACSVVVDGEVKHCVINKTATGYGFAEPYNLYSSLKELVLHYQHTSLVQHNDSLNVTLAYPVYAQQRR
p110 delta, sequence (O00329 whole entry, canonical isoform): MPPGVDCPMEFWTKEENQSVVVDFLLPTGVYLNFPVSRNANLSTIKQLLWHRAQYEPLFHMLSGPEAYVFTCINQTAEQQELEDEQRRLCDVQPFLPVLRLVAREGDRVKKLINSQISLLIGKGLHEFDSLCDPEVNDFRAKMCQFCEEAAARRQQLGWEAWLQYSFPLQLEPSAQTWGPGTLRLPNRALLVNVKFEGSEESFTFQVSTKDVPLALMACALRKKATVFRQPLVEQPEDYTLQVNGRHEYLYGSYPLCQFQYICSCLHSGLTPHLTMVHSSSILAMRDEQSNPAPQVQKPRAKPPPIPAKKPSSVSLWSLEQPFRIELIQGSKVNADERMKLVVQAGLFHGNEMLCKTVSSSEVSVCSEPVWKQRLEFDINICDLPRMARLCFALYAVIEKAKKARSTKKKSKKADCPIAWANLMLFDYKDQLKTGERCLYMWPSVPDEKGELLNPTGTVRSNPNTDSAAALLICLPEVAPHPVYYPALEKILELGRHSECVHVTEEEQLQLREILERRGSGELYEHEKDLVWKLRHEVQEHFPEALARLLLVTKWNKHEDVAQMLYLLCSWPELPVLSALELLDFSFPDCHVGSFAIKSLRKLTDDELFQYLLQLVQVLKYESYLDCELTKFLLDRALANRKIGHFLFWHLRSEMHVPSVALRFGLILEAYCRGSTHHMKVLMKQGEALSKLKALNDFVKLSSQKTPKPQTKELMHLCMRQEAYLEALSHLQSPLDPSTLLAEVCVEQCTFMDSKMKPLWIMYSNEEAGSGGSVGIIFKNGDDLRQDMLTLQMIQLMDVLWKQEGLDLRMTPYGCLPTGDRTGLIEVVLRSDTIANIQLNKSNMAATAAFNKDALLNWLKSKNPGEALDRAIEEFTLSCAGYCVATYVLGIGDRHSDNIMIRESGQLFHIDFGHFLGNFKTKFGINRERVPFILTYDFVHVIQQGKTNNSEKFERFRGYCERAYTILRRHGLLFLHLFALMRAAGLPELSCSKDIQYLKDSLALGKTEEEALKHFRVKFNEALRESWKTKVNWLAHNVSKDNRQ
p110 delta, sequence (P27986 whole entry partner, canonical isoform): as the sequence (P27986 whole entry partner, canonical isoform) above

Row | Compound | IC50 [1] | IC50 p110 alpha/IC50 p110 delta [2]
1 | Cc1nc(-c2cn3c(n2)-c2ccc(-c4cn(C)nc4C4CCCN(C(C)C)C4)cc2OCC3)n(C(C)C)n1 (stereo not drawn) [Example 280, 2-(2-isopropyl-5-methyl-1,2,4-triazol-3-yl)-9-[3-(1-isopropyl-3-piperidyl)-1-methyl-pyrazol-4-yl]-5,6-dihydroimidazo[1,2-d][1,4]benzoxazepine] | 0.878 nM | 32.7
2 | Cc1nc(-c2cn3c(n2)-c2cc(C(=O)N4CCN(C(C)(C)CO)CC4)c(F)cc2OCC3)n(C(C)C)n1 [Example 281, [9-fluoro-2-(2-isopropyl-5-methyl-1,2,4-triazol-3-yl)-5,6-dihydroimidazo[1,2-d][1,4]benzoxazepin-10-yl]-[4-(2-hydroxy-1,1-dimethyl-ethyl)piperazin-1-yl]methanone] | 5.63 nM | 30.6
3 | Cc1nc(-c2cn3c(n2)-c2ccc(-c4ccnn4C4CC(C)N(C)C(C)C4)cc2OCC3)n(C(C)C)n1 (stereo not drawn) [Example 282, 2-(2-isopropyl-5-methyl-1,2,4-triazol-3-yl)-9-[2-(1,2,6-trimethyl-4-piperidyl)pyrazol-3-yl]-5,6-dihydroimidazo[1,2-d][1,4]benzoxazepine] | 1.3 nM | 76.9
4 | Cc1nc(-c2cn3c(n2)-c2ccc(OC4(CC5CC5)CN(C(C)C)C4)cc2OCC3)n(C(C)C)n1 [Example 283, 9-[3-(cyclopropylmethyl)-1-isopropyl-azetidin-3-yl]oxy-2-(2-isopropyl-5-methyl-1,2,4-triazol-3-yl)-5,6-dihydroimidazo[1,2-d][1,4]benzoxazepine] | 0.936 nM | 75.5
5 | Cc1nc(-c2cn3c(n2)-c2ccc(OC4(CC5CC5)CNC4)cc2OCC3)n(C(C)C)n1 [Example 284, 9-[3-(cyclopropylmethyl)azetidin-3-yl]oxy-2-(2-isopropyl-5-methyl-1,2,4-triazol-3-yl)-5,6-dihydroimidazo[1,2-d][1,4]benzoxazepine] | 2.9 nM | 23.9
6 | Cc1nc(-c2cn3c(n2)-c2ccc(-c4ccnn4C4CCCN(C5(C)COC5)C4)cc2OCC3)n(C(C)C)n1 (stereo not drawn) [Example 285, 2-(2-isopropyl-5-methyl-1,2,4-triazol-3-yl)-9-[2-[1-(3-methyloxetan-3-yl)-3-piperidyl]pyrazol-3-yl]-5,6-dihydroimidazo[1,2-d][1,4]benzoxazepine] | 1.39 nM | 31.9
7 | Cc1nc(-c2cn3c(n2)-c2ccc(-c4cnn(C)c4C4CCCCN4CC(C)(C)O)cc2OCC3)n(C(C)C)n1 (stereo not drawn) [Example 289, 1-[2-[4-[2-(2-isopropyl-5-methyl-1,2,4-triazol-3-yl)-5,6-dihydroimidazo[1,2-d][1,4]benzoxazepin-9-yl]-2-methyl-pyrazol-3-yl]-1-piperidyl]-2-methyl-propan-2-ol] | 0.852 nM | 13.1
8 | CC(C)n1nc(CO)nc1-c1cn2c(n1)-c1ccc(-c3ccnn3C3CCN(C)CC3)cc1OCC2 [Example 290, [1-isopropyl-5-[9-[2-(1-methyl-4-piperidyl)pyrazol-3-yl]-5,6-dihydroimidazo[1,2-d][1,4]benzoxazepin-2-yl]-1,2,4-triazol-3-yl]methanol] | 2.42 nM | 15.9
9 | Cc1nc(-c2cn3c(n2)-c2ccc(N4CCC4C4CCN(C(C)C)CC4)cc2OCC3)n(C(C)C)n1 (stereo not drawn) [Example 293, 2-(2-isopropyl-5-methyl-1,2,4-triazol-3-yl)-9-[2-(1-isopropyl-4-piperidyl)azetidin-1-yl]-5,6-dihydroimidazo[1,2-d][1,4]benzoxazepine] | 1.47 nM | 10.3
10 | Cc1nc(-c2cn3c(n2)-c2cc([C@@H](C)N4CCN(C(C)(C)C)CC4)c(F)cc2OCC3)n(C(C)C)n1 [Example 294, (R)-10-(1-(4-tert-butylpiperazin-1-yl)ethyl)-9-fluoro-2-(1-isopropyl-3-methyl-1H-1,2,4-triazol-5-yl)-5,6-dihydrobenzo[f]imidazo[1,2-d][1,4]oxazepine] | 0.777 nM | 479
11 | Cc1nc(-c2cn3c(n2)-c2ccc(-c4ccnn4C4CCN(C(C)C)CC4)cc2OCC3)n(C(C)C)n1 [Example 296, 2-(2-isopropyl-5-methyl-1,2,4-triazol-3-yl)-9-[2-(1-isopropyl-4-piperidyl)pyrazol-3-yl]-5,6-dihydroimidazo[1,2-d][1,4]benzoxazepine] | 1.06 nM | 31.5
12 | Cc1nc(-c2cn3c(n2)-c2cc([C@H](C)N4CCN(C(C)(C)C)CC4)c(F)cc2OCC3)n(C(C)C)n1 [Example 297, (S)-10-(1-(4-tert-butylpiperazin-1-yl)ethyl)-9-fluoro-2-(1-isopropyl-3-methyl-1H-1,2,4-triazol-5-yl)-5,6-dihydrobenzo[f]imidazo[1,2-d][1,4]oxazepine] | 2.42 nM | 102
13 | CC(C)n1nc(N)nc1-c1cn2c(n1)-c1ccc(-c3ccnn3C3CCN(C)CC3)cc1OCC2 [Example 298, 1-isopropyl-5-[9-[2-(1-methyl-4-piperidyl)pyrazol-3-yl]-5,6-dihydroimidazo[1,2-d][1,4]benzoxazepin-2-yl]-1,2,4-triazol-3-amine] | 0.705 nM | 54.6
14 | Cc1nc(-c2cn3c(n2)-c2ccc(OC4(CC(C)C)CN(C(C)C)C4)cc2OCC3)n(C(C)C)n1 [Example 301, 9-(3-isobutyl-1-isopropyl-azetidin-3-yl)oxy-2-(2-isopropyl-5-methyl-1,2,4-triazol-3-yl)-5,6-dihydroimidazo[1,2-d][1,4]benzoxazepine] | 8.67 nM | 32.1
15 | Cc1nc(-c2cn3c(n2)-c2cc([C@H](C)N4CCN(C(C)(C)C)CC4)ncc2OCC3)n(C(C)C)n1 [Example 303, (S)-10-(1-(4-tert-butylpiperazin-1-yl)ethyl)-2-(1-isopropyl-3-methyl-1H-1,2,4-triazol-5-yl)-5,6-dihydroimidazo[1,2-d]pyrido[4,3-f][1,4]oxazepine] | 1.92 nM | 113
16 | CCN1CCC(C2CCCN2c2ccc3c(c2)OCCn2cc(-c4nc(C)nn4C(C)C)nc2-3)CC1 (stereo not drawn) [Example 304, 9-[2-(1-ethyl-4-piperidyl)pyrrolidin-1-yl]-2-(2-isopropyl-5-methyl-1,2,4-triazol-3-yl)-5,6-dihydroimidazo[1,2-d][1,4]benzoxazepine] | 0.52 nM | 36.4
17 | Cc1nc(-c2cn3c(n2)-c2cc([C@@H](C)N4CCN(C(C)(C)C)CC4)ncc2OCC3)n(C(C)C)n1 [Example 305, (R)-10-(1-(4-tert-butylpiperazin-1-yl)ethyl)-2-(1-isopropyl-3-methyl-1H-1,2,4-triazol-5-yl)-5,6-dihydroimidazo[1,2-d]pyrido[4,3-f][1,4]oxazepine] | 2.81 nM | 28.6
18 | Cc1nc(-c2cn3c(n2)-c2ccc(N4CCCC4C4CCN(S(C)(=O)=O)CC4)cc2OCC3)n(C(C)C)n1 (stereo not drawn) [Example 306, 2-(2-isopropyl-5-methyl-1,2,4-triazol-3-yl)-9-[2-(1-methylsulfonyl-4-piperidyl)pyrrolidin-1-yl]-5,6-dihydroimidazo[1,2-d][1,4]benzoxazepine] | 1.18 nM | 12.4
